How the values were obtained:
DC-SIGN ECD M270F [1] = target: T1, DC-SIGN ECD M270F (Homo sapiens, UniProt Q9NNX6, M270F); assay: Plate-based horseradish peroxidase assay; format: binding; conditions: constant HRP concentration (1 µg mL-1); read-out: EC50 (mean ± SD), CaCl2 titration
T1 construct: acids 64 -404 of DC -SIGN; made in house
T1 sequence (Q9NNX6 64-404 M270F): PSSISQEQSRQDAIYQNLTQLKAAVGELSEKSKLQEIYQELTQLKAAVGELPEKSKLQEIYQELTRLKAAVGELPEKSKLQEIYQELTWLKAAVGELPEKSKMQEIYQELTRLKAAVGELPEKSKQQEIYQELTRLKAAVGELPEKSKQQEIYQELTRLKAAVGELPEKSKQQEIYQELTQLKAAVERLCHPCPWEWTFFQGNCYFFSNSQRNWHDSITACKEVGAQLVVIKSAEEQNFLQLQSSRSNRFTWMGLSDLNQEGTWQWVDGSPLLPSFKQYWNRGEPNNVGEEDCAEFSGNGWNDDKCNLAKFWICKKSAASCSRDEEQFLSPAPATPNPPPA
Procedure: (§1) chromatography. Purified protein was dialyzed against 25 mM HEPES, 150 mM NaCl, 10 mM CaCl2, pH 7.4, concentrated using a centrifugal spin filter, snap frozen and then stored at -80°C. […]
(§2) Plate-based horseradish peroxidase assay
(§3) General remarks. Unless stated otherwise, all reagents and buffers were obtained from Sigma Aldrich or Carl Roth. Measurements were done on a Enspire Multimode Plate Reader (PerkinElmer). GraphPad Prism was used for all data processing and analysis.
(§4) CaCl2 titration. 100 µg mL-1 DC-SIGN ECD were immobilized in immobilization buffer (25 mM HEPES, 150 mM NaCl, 25 mM CaCl 2, pH 7.4) overnight at 4°C on transparent Nunc Maxisorp 96-well plates (Thermo Fisher). Protein solution was removed, and plates were washed three times with immobilization buffer and then blocked for 2 hours at 4°C with blocking buffer (25 mM HEPES, 150 mM NaCl, 25 mM CaCl 2, 2% BSA, 0.01% Tween -20). Plates were washed twice with 25 mM HEPES, 150 mM NaCl, 5 mM EDTA, pH 7.4 and twice with 25 mM HEPES, 150 mM NaCl, pH 7.4 to remove residual Ca 2+. To titrate Ca2+, CaCl2 in 25 mM HEPES, 150 mM NaCl, pH 7.4 was serially diluted on the plate at a constant HRP concentration of 1 µg mL-1 and then incubated at RT for 2 hours. Following incubation, plates were washed three times with 25 mM HEPES, 150 mM NaCl, pH 7.4 and bound HRP was detected using a TMB substrate kit (Thermo Fisher) and 0.18 M H2SO4 according to manufacturer’s instructions. Absorption was […]
(§5) HRP titration. Immobilization and blocking were done as described above. After blocking, plates were washed three times with immobilization buffer. HRP in immobilization buffer was serially diluted on the plate at a constant concentration CaCl2 concentration of 25 mM and then incubated […]
(§6) at RT for 2 hours. Following incubation, plates were washed three times with immobilization buffer and HRP was detected as described above.
(§7) Immobilization and blocking were done as described above. After blocking, plates were washed three times with immobilization buffer. Mannose in immobilization buffer containing 1 µg mL-1 HRP was serially diluted on the plate and then incubated at RT for 2 hours.
(§8) Following incubation, plates were washed three times with immobilization buffer and HRP was detected as described above.
(§9) All conditions were measured in technical triplicates, averaged and normalized to the control well […]
(§10) IC50 and EC50 values and hill […]
(§11) slopes (nH) were obtained in a four-parameter fit according to equation (1).
(§12) Y = bottom + top − bottom (1)
(§13) With bottom and top representing the minimal and maximal response plateaus, respectively, Y as the observed response and X the logarithmic concentration of the ligand . […]
(§14) Biosynth. Spectra were processed in TopSpin 4.2.0 and data analysis was performed using CCPN Analysis 3.2.0 for 2D spectra and in MestreNova for 1D spectra.2 Further analysis was done using GraphPad Prism and in-house python scripts.

DC-SIGN ECD wildtype [2] = target: T2, DC-SIGN ECD wildtype (Homo sapiens, UniProt Q9NNX6); assay: Plate-based horseradish peroxidase assay; format: binding; conditions: constant HRP concentration (1 µg mL-1); read-out: EC50 (mean ± SD), CaCl2 titration
T2 construct: acids 64 -404 of DC -SIGN; made in house
T2 sequence (Q9NNX6 64-404): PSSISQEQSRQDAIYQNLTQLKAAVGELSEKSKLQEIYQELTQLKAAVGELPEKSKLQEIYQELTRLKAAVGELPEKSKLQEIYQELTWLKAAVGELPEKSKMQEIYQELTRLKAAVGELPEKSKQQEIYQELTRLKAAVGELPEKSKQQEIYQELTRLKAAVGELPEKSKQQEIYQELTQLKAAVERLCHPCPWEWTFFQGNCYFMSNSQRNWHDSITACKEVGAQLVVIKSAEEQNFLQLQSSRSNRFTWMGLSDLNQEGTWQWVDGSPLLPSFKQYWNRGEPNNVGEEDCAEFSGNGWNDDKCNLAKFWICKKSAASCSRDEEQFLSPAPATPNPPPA
Procedure: as §1, §2, §3, §4, §5, §6, §7, §8, §9, §10, §11, §12, §13, §14

DC-SIGN ECD T314A [3] = target: T3, DC-SIGN ECD T314A (Homo sapiens, UniProt Q9NNX6, T314A); assay: Plate-based horseradish peroxidase assay; format: binding; conditions: constant HRP concentration (1 µg mL-1); read-out: EC50 (mean ± SD), CaCl2 titration
T3 construct: acids 64 -404 of DC -SIGN; made in house
T3 sequence (Q9NNX6 64-404 T314A): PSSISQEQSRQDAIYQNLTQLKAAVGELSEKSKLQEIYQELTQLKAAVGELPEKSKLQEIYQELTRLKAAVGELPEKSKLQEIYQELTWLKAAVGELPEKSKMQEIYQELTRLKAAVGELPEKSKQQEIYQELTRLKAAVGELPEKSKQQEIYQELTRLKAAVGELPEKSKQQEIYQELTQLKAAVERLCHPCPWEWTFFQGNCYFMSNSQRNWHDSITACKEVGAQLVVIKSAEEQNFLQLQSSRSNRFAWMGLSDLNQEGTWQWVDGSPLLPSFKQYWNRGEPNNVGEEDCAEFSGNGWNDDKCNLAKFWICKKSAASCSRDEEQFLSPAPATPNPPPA

DC-SIGN ECD M270F [4] = target: T1, DC-SIGN ECD M270F; assay: 19F R2-filtered NMR reporter assay, CaCl2 titration; conditions: binding of 0.1 mM ManNAcF3 reporter, R2,obs
Procedure: (§15) 19F R2-filtered NMR reporter displacement assay. The 19F R2-filtered NMR reporter displacement assay was adjusted for CaCl2 titrations with DC-SIGN ECD as previously described.1 Apparent transverse relaxation rates R2,obs were obtained using the CPMG pulse sequence with a relaxation delay d1 of 2.0 s, acquisition time tacq of 0.8 s and a CPMG frequency νCPMG of 500 Hz.
(§16) DC-SIGN ECD was dialyzed four times against 25 mM HEPES, 150 mM NaCl (pH 7.4) to remove Ca2+ prior to measurements. Samples contained 25 μM DC-SIGN ECD in 25 mM HEPES, 150 mM NaCl (pH 7.4) supplemented with 10% D2O and 0.1 mM of the ManNAcF3 reporter molecule.
(§17) TFA at a concentration of 0.1 mM served as an internal reference. 512 scans were recorded to ensure sufficient signal to noise ratios. R2,obs values were obtained by fitting equation 5 to integrals I of the 19F resonance of the reporter at different relaxation times T with I0 as integral at T = 0 s. […]

DC-SIGN ECD T314A [5] = target: T3, DC-SIGN ECD T314A; assay: as above; conditions: binding of 0.1 mM ManNAcF3 reporter, R2,obs
Procedure: as §15, §16, §17

DC-SIGN ECD wildtype [6] = target: T2, DC-SIGN ECD wildtype; assay: as above; conditions: binding of 0.1 mM ManNAcF3 reporter, R2,obs
Procedure: as §15, §16, §17

DC-SIGN CRD M270F = target: T4, DC-SIGN CRD M270F (Homo sapiens, UniProt Q9NNX6, M270F); assay: 1H-15N HSQC NMR titration (CSP fitting); format: binding
T4 construct: acids 253-404 of DC-SIGN; His-tag (N); made in house
T4 sequence (Q9NNX6 253-404 M270F): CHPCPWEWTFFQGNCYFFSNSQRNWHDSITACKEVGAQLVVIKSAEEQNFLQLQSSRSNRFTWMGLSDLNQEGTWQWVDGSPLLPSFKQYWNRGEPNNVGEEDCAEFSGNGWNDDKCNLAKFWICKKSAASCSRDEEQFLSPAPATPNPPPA
Procedure: (§18) 1H-15N HSQC NMR. 1H-15N HSQC NMR spectra were collected with 256 increments in the nitrogen and 24 scans per increment and 2048 points in the direct dimension. The relaxation delay d1 was set to 1.0 s. The W5 WATERGATE pulse sequence was used for solvent suppression.3, 4 Experiments were performed at a CRD concentration of 200 μM in 20 mM MES, 40 mM NaCl, 10 mM CaCl2 (pH 6.0) supplemented with 10% D 2O and, if applicable, varying concentrations of ligands. Samples of apo DC -SIGN CRD were prepared as described for 1H-13C HSQC NMR experiments. A previously published resonance assignment of DC-SIGN CRD was transferred to the nearest neighbor in a reference spectrum recorded without ligand.5 Unassigned, overlapping or disappearing peaks were not assigned.
(§19) CSPs induced by mutations or ligands were calculated as previously described according to […]
(§20) The empirical weighing factor a was set to 0.15 for all calculations.
(§21) Dissociation constants (K Ds) were determined in titration experiments at five ligand concentratio ns […]
(§22) in the fast exchange regime were used for the fitting procedure via equation 4 in a global two - […]
(§23) with CSP max corresponding to the CSP values upon saturation and the bound protein fraction p b […]
(§24) CHESPA was performed as previously described .7 The chemical shift vector between apo and holo wildtype DC -SIGN CRD was used as reference perturbation to calculate the vector product to […]

DC-SIGN CRD T314A = target: T5, DC-SIGN CRD T314A (Homo sapiens, UniProt Q9NNX6, T314A); assay: 1H-15N HSQC NMR titration (CSP fitting); format: binding; conditions: Lewis X titration, three concentrations, saturation not reached (estimated)
T5 construct: acids 253-404 of DC-SIGN; His-tag (N); made in house
T5 sequence (Q9NNX6 253-404 T314A): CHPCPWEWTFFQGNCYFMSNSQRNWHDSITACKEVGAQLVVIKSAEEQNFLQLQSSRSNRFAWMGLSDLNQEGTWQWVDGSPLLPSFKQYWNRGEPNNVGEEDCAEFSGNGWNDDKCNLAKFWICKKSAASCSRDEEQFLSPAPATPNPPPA
Procedure: as §18, §19, §20, §21, §22, §23, §24

DC-SIGN CRD wildtype = target: T6, DC-SIGN CRD wildtype (Homo sapiens, UniProt Q9NNX6); assay: 1H-15N HSQC NMR titration (CSP fitting); format: binding
T6 construct: acids 253-404 of DC-SIGN; His-tag (N); made in house
T6 sequence (Q9NNX6 253-404): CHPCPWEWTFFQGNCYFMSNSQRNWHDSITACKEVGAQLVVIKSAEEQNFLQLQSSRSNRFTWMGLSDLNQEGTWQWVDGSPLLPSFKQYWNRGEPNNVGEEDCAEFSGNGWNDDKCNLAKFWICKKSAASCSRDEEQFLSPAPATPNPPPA
Procedure: as §18, §19, §20, §21, §22, §23, §24

[7] = Lewis X titration, three concentrations, saturation not reached (estimated)

## [Ca+2].[Cl-].[Cl-] [CaCl2]
DC-SIGN ECD M270F [1]
  EC50: 700 ± 200 µM
DC-SIGN ECD wildtype [2]
  EC50: 1000 ± 400 µM
DC-SIGN ECD T314A [3]
  EC50: 1200 ± 300 µM
DC-SIGN ECD M270F [4]
  hill slope, CaCl2 titration: 1.4
DC-SIGN ECD M270F [4]; 25 μM ECD
  EC50: 200 µM
DC-SIGN ECD T314A [5]
  hill slope, CaCl2 titration: 1.7
DC-SIGN ECD T314A [5]; 25 μM ECD
  EC50: 600 µM
DC-SIGN ECD wildtype [6]
  hill slope, CaCl2 titration: 2.0
DC-SIGN ECD wildtype [6]; 25 μM ECD
  EC50: 300 µM

## CC(=O)N[C@H]1C(O)O[C@H](CO)[C@@H](O[C@@H]2O[C@H](CO)[C@H](O)[C@H](O)[C@H]2O)[C@@H]1O[C@@H]1O[C@@H](C)[C@@H](O)[C@@H](O)[C@@H]1O (some centres unmarked) [Lewis X, Lewis X trisaccharide]
DC-SIGN CRD M270F; [7]
  Kd: 600 ± 200 µM
DC-SIGN CRD T314A
  Kd: 1400 ± 100 µM
DC-SIGN CRD wildtype; [7]
  Kd: 1100 ± 200 µM

## Oc1ccccc1 [phenol]
DC-SIGN CRD M270F; 20 mM phenol, holo CRD, compared with wildtype
  CSPs on addition of phenol: drastically reduced CSPs
DC-SIGN CRD wildtype; 20 mM phenol, holo 15N-labeled CRD, residues of cryptic pocket and upper cavity
  CSPs on addition of phenol: strong chemical shift perturbations
